Data reported in patent publication US20240342136A1, “Glutamate receptor agonists for suppression of mast cell function” (University of Pittsburgh - Of the Commonwealth System of …, priority 2023, published 2024).
“Also recorded” adds a separate entry of the source.

Assays:
[1] = test system: murine peritoneal mast cells; assay: Mast cell degranulation by flow cytometry (surface Lamp1 and avidin binding) after compound 48/80; format: cell-based; conditions: for degranulation of PCMC in response to MrgprB2: in vitro, dose-dependent manner; for mast cell degranulation (mast cell activation): 48 hours incubation, compound 48/80 20 ug/ml 20 minutes, FIG. 1B
Method: Primary mast cell cultures derived from murine peritoneal mast cells were incubated for 48 hours with kainic acid (0.1, 1.0, 10 and 100 uM), glutamate (6 mM) or vehicle control. Cultures were then exposed to the synthetic MrgprB2 ligand, compound 48/80, at 20 ug/ml for 20 minutes. The extent of mast cell degranulation was determined based on surface expression of Lamp1 protein and avidin binding using flow cytometry gated on CD117+ FcεR+ mast cells. Representative flow plots from unstimulated cells (control) and cells stimulated with compound 48/80 are shown (FIG. 1A). […] A similar set of experiments were performed using mast cells incubated with the selective GluK2 agonist, SYM2081 at 1600 nM concentration (FIGS. 1C and 1D). […] Each symbol represents data from a single well of mast cells.

[2] = test system: murine peritoneal mast cells; assay: β-hexosaminidase release from mast cells; format: cell-based; conditions: preincubated with SYM2081 at 100 nM and 1600 nM; FIG. 1F
[3] = test system: irritant dermatitis; assay: Croton oil-induced irritant dermatitis, ear swelling; format: in vivo, C57BL/6 mice; conditions: intradermal SYM2081 for 2 days; 0.5% croton oil on 1 ear; FIG. 2D
Method: (§1) Cohorts of 7-9-week-old female C57BL/6 mice were given 20 ul intradermal flank injections of 1600 nM SYM2081 or control PBS twice a day for 2 days. Evans Blue dye was introduced by intravenous injection to allow for quantification of edema followed by intradermal injection of control PBS or compound 48/80 (20 ul 10 ug/ml). The amount of Evans blue dye released into the skin which quantifies edema and is an indirect measure of mast cell degranulation was measured 20 minutes later (FIG. 2A). […] The percentage of degranulated mast cells was also quantified by direct microscopic visualization of skin samples stained with toluidine blue (FIG. 2B). Whole human skin explants were cultured in control PBS or 1600 nM SYM2081 for 48 hours. Sample were exposed to compound 48/80 (240 ug/ml) for 20 minutes followed by direct microscopic visualization of skin samples stained with toluidine blue (FIG. 2C). […] Finally, C57BL/6 mice were treated with intradermal injection of control PBS or SYM2081 for 2 days as above. Mice were then challenged by application of 0.5% croton oil, an irritant, on 1 ear and the degree of ear swelling which is reflective of the extent of irritant dermatitis was measured (FIG. 2D). […] Each symbol represents data from an individual animal.

[4] = test system: mast cells in whole human skin explants; assay: Whole human skin explants, degranulated mast cells by toluidine blue after compound 48/80; format: cell-based; conditions: 1600 nM for 48 hours; compound 48/80 240 ug/ml 20 minutes; FIG. 2C
Method: as §1

[5] = test system: dermal mast cells; assay: Evans Blue dye edema after intradermal compound 48/80 in mice; format: in vivo, C57BL/6 mice; conditions: compound 48/80 challenge, 20 minutes
Method: Cohorts of 7-9-week-old female C57BL/6 mice were given 20 ul intradermal flank injections of 1600 nM SYM2081 or control PBS twice a day for 2 days. Evans Blue dye was introduced by intravenous injection to allow for quantification of edema followed by intradermal injection of control PBS or compound 48/80 (20 ul 10 ug/ml). The amount of Evans blue dye released into the skin which quantifies edema and is an indirect measure of mast cell degranulation was measured 20 minutes later (FIG. 2A). […] The percentage of degranulated mast cells was also quantified by direct microscopic visualization of skin samples stained with toluidine blue (FIG. 2B). […] Mice were then challenged by application of 0.5% croton oil, an irritant, on 1 ear and the degree of ear swelling which is reflective of the extent of irritant dermatitis was measured (FIG. 2D). […]
Cohorts of 7-9-week-old female C57BL/6 mice were treated with 5.0% SYM2081 formulated into a light base or vehicle alone on the flank twice daily for 2 days. Evans Blue dye was introduced by intravenous injection to allow for quantification of edema followed by intradermal injection of control PBS or compound 48/80 (20 ul 10 ug/ml). The amount of Evans blue dye released into the skin which quantifies edema and is an indirect measure of mast cell degranulation was measured 20 minutes later (FIG. 3A). […]

[6] = test system: contact hypersensitivity; assay: DNFB contact hypersensitivity, ear thickness; format: in vivo, mice; conditions: topical SYM2081 on shaved abdomen twice daily for 2 days; 0.5% DNFB sensitization, 0.25% DNFB challenge; 7 days; FIG. 3B

## C=C(C)[C@H]1CN[C@H](C(=O)O)[C@H]1CC(=O)O [kainic acid]
[1]
  degranulation of PCMC in response to MrgprB2: suppressed
[1]; kainic acid 0.1, 1.0, 10 and 100 uM
  mast cell degranulation (mast cell activation): suppress mast cell activation

## N[C@@H](CCC(=O)O)C(=O)O [glutamate]
[1]; glutamate 6 mM
  mast cell degranulation (mast cell activation): suppress mast cell activation
[1]
  degranulation of PCMC in response to MrgprB2: suppressed

## C[C@H](C[C@H](N)C(=O)O)C(=O)O [SYM2081, (2S,4R)-4-methylglutamic acid]
[2]
  release of β-hexosaminidase: decreased
[3]
  ear swelling (irritant dermatitis): attenuated; also recorded: reduced ear swelling
[4]
  percentage of degranulated mast cells: reduced percentage of degranulated mast cells
[5]; 20 ul intradermal 1600 nM SYM2081 twice a day for 2 days, FIG. 2A
  edema (Evans blue dye released into the skin), indirect measure of mast cell degranulation: effective to reduce mast cell degranulation; also recorded: suppressed; also recorded: significant reduction in edema
[5]; topical 5.0% SYM2081 in a light base on flank twice daily for 2 days, FIG. 3A
  edema (Evans blue dye released into the skin), indirect measure of mast cell degranulation: effective to reduce mast cell degranulation; also recorded: significant reduction in edema
[6]
  increased ear thickness (inflammation) in response to DNFB: reduced inflammation
[1]; FIG. 1E
  effective concentration (suppression of mast cells): at least 0.1 nM
[1]; Mus musculus, Mast cell, read-out: IC50 of suppression of mast cells (degranulation)
  IC50: 2.27 nM
[1]
  degranulation of PCMC in response to MrgprB2: suppressed
